# Several values for one entry are separate records, joined by “and”; a condition that tells them apart may be missing. Equal entries are not always repeated.
# Legend:
# Type in all cases: biochemical
# Conditions in all cases: for HDAC Activity (Fluorescent counts): Repeat1/Repeat 2
# [1] = target: T1, HDAC3/NCOR2 (Homo sapiens, UniProt O15379); experiment: In vitro HDAC profiling (deacetylation assay), HDAC3
# T1 construct: purchased BPS Bioscience #50051-11
# Experimental: (§1) HDAC profiling was performed at BPS Bioscience (San Diego, CA). All of the compounds are dissolved in DMSO. A series of dilutions of the compounds were prepared with 10% DMSO in HDAC assay buffer (#50031) and 5 µl of the dilution was added to a 50 µl reaction so that the final concentration of DMSO is 1% in all of reactions. All of the enzymatic reactions were conducted in duplicate at 37 °C for 30 mins, except that the enzyme reactions for HDAC11 were at room temperature for 3 hrs. All of the reactions were performed in a 50 µl mixture containing HDAC assay buffer, 5 µg BSA, an HDAC substrate [HDAC Substrate 3 (BPS number 50037) or HDAC Class 2a Substrate 1 (BPS number 50040)], an HDAC enzyme (#50051-11) and a test compound. After enzymatic reactions, 50 μl of HDAC Developer (#50030) was added to each well and the plate was incubated at room temperature for an additional 20 mins. Fluorescence intensity was measured at an excitation of 360 nm and an emission of 460 nm using a Tecan Infinite M1000 microplate reader. HDAC activity assays were performed in duplicates at each concentration. The fluorescent intensity data were analyzed using the computer software, Graphpad Prism. In the absence of the compound, the fluorescent intensity (Ft) in each data set was defined as 100% activity. In the absence of HDAC, the fluorescent intensity (Fb) in each data set was defined as 0% activity. The percent activity in the presence of each compound was calculated according to the following equation: %activity = (F − Fb)/(Ft − Fb), where F = the fluorescent intensity in the presence of the compound. The values of % activity versus a series of compound concentrations were then plotted using non-linear regression analysis of Sigmoidal dose-response curve generated with the equation Y = B + (T − B)/1 + 10((LogIC50 − X) × Hill Slope), where Y = percent activity, B = minimum percent activity, T = maximum percent activity, X = logarithm of compound and Hill Slope = slope factor or Hill coefficient. The IC50 value was determined by the concentration causing a half-maximal percent activity.
# [2] = target: T2, HDAC7 (Homo sapiens, UniProt Q8WUI4); experiment: In vitro HDAC profiling (deacetylation assay), HDAC7
# T2 construct: purchased BPS Bioscience #50051-11
# T2 sequence (Q8WUI4 1-952): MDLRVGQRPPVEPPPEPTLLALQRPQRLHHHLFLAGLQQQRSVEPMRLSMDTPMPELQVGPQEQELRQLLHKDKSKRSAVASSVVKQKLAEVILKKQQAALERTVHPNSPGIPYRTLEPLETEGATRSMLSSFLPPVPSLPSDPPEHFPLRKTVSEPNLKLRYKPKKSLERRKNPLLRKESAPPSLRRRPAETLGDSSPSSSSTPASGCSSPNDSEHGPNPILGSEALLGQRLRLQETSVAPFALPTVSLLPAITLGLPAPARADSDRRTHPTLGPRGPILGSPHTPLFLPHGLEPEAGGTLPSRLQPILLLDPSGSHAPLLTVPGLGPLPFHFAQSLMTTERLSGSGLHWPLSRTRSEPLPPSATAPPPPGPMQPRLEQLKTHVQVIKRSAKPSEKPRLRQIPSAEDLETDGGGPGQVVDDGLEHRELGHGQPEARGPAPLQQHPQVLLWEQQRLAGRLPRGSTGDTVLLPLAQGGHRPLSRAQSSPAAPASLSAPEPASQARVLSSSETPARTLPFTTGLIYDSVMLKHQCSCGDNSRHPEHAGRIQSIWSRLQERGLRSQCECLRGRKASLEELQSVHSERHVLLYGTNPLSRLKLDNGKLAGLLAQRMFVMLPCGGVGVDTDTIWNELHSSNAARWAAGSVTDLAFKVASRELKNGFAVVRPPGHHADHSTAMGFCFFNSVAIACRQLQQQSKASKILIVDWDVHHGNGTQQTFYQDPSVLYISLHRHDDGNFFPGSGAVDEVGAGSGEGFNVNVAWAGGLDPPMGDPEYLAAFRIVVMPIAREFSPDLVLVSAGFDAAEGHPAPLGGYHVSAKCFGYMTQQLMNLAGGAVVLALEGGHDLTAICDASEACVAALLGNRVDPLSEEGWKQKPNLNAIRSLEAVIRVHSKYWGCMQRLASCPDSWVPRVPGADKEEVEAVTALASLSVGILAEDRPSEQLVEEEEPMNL
# Experimental: as §1
# [3] = target: T3, HDAC8 (Homo sapiens, UniProt Q9BY41); experiment: In vitro HDAC profiling (deacetylation assay), HDAC8
# T3 construct: purchased BPS Bioscience #50051-11
# T3 sequence (Q9BY41 1-377): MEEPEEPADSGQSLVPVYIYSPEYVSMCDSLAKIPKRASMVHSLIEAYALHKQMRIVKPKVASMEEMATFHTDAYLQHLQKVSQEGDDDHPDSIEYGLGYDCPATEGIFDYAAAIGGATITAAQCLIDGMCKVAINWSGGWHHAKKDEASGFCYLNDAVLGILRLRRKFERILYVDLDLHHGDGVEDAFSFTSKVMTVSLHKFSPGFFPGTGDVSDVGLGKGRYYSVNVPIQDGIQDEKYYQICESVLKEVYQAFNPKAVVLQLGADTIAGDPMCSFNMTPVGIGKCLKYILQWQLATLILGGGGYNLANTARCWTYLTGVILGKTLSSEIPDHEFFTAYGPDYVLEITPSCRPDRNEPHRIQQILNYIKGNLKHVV
# Experimental: as §1
# [4] = in vitro deacetylation assay, duplicates
# T1 sequence (O15379 whole entry): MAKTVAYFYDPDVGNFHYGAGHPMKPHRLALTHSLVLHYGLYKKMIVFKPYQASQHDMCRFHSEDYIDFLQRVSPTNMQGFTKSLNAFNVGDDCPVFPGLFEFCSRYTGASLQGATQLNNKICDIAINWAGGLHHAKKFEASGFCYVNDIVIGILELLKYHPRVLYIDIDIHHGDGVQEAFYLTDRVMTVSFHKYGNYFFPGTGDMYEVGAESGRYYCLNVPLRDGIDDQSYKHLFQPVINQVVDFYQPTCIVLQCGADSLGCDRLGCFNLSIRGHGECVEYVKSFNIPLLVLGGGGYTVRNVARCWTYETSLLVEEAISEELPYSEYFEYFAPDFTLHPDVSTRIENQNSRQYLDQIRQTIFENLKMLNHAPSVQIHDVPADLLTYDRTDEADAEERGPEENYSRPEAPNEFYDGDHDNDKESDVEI
# T1 sequence (Q9Y618 395-489 partner limits assumed): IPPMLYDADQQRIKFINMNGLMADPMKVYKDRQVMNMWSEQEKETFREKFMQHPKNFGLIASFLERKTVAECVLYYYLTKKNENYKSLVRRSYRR
structure (smiles),measurement,setting,value
O=C(CCCCCCC(=O)Nc1ccc(Cl)c(C(=O)Nc2ccc(NC(=O)c3cc(Cl)ccc3Cl)cc2)c1)NO [IHR-SAHA],HDAC Activity (Fluorescent counts),"[1]; HDAC3/NCOR2, WW01 0 Log nM",24959 Fluorescent counts and 25571 Fluorescent counts
same,HDAC Activity (Fluorescent counts),"[1]; HDAC3/NCOR2, WW01 0.5 Log nM",24611 Fluorescent counts and 25823 Fluorescent counts
same,HDAC Activity (Fluorescent counts),"[1]; HDAC3/NCOR2, WW01 1 Log nM",23771 Fluorescent counts and 23666 Fluorescent counts
same,HDAC Activity (Fluorescent counts),"[1]; HDAC3/NCOR2, WW01 1.5 Log nM",20712 Fluorescent counts and 23164 Fluorescent counts
same,HDAC Activity (Fluorescent counts),"[1]; HDAC3/NCOR2, WW01 2 Log nM",15438 Fluorescent counts and 15968 Fluorescent counts
same,HDAC Activity (Fluorescent counts),"[1]; HDAC3/NCOR2, WW01 2.5 Log nM",10185 Fluorescent counts and 10772 Fluorescent counts
same,HDAC Activity (Fluorescent counts),"[1]; HDAC3/NCOR2, WW01 3 Log nM",6354 Fluorescent counts and 6385 Fluorescent counts
same,HDAC Activity (Fluorescent counts),"[1]; HDAC3/NCOR2, WW01 3.5 Log nM",4726 Fluorescent counts and 4835 Fluorescent counts
same,HDAC Activity (Fluorescent counts),"[1]; HDAC3/NCOR2, WW01 4 Log nM",3849 Fluorescent counts and 3671 Fluorescent counts
same,HDAC Activity (Fluorescent counts),"[1]; HDAC3/NCOR2, WW01 -0.5 Log nM",25301 Fluorescent counts and 26608 Fluorescent counts
same,IC50,[1]; [4],0.188 µM
same,HDAC Activity (Fluorescent counts),"[2]; HDAC7, WW01 0 Log nM",32252 Fluorescent counts and 31868 Fluorescent counts
same,HDAC Activity (Fluorescent counts),"[2]; HDAC7, WW01 0.5 Log nM",34296 Fluorescent counts and 32176 Fluorescent counts
same,HDAC Activity (Fluorescent counts),"[2]; HDAC7, WW01 1 Log nM",33398 Fluorescent counts and 31906 Fluorescent counts
same,HDAC Activity (Fluorescent counts),"[2]; HDAC7, WW01 1.5 Log nM",32702 Fluorescent counts and 31126 Fluorescent counts
same,HDAC Activity (Fluorescent counts),"[2]; HDAC7, WW01 2 Log nM",31277 Fluorescent counts and 30567 Fluorescent counts
same,HDAC Activity (Fluorescent counts),"[2]; HDAC7, WW01 2.5 Log nM",29706 Fluorescent counts and 30369 Fluorescent counts
same,HDAC Activity (Fluorescent counts),"[2]; HDAC7, WW01 3 Log nM",26605 Fluorescent counts and 26320 Fluorescent counts
same,HDAC Activity (Fluorescent counts),"[2]; HDAC7, WW01 3.5 Log nM",26104 Fluorescent counts and 24955 Fluorescent counts
same,HDAC Activity (Fluorescent counts),"[2]; HDAC7, WW01 4 Log nM",25321 Fluorescent counts and 25226 Fluorescent counts
same,HDAC Activity (Fluorescent counts),"[2]; HDAC7, WW01 -0.5 Log nM",33125 Fluorescent counts and 32259 Fluorescent counts
same,IC50,[2]; [4],> 10 µM
same,HDAC Activity (Fluorescent counts),"[3]; HDAC8, WW01 0 Log nM",21093 Fluorescent counts and 21821 Fluorescent counts
same,HDAC Activity (Fluorescent counts),"[3]; HDAC8, WW01 0.5 Log nM",22364 Fluorescent counts and 22102 Fluorescent counts
same,HDAC Activity (Fluorescent counts),"[3]; HDAC8, WW01 1 Log nM",22562 Fluorescent counts and 22110 Fluorescent counts
same,HDAC Activity (Fluorescent counts),"[3]; HDAC8, WW01 1.5 Log nM",21528 Fluorescent counts and 20488 Fluorescent counts
same,HDAC Activity (Fluorescent counts),"[3]; HDAC8, WW01 2 Log nM",18696 Fluorescent counts and 20642 Fluorescent counts
same,HDAC Activity (Fluorescent counts),"[3]; HDAC8, WW01 2.5 Log nM",20242 Fluorescent counts and 19075 Fluorescent counts
same,HDAC Activity (Fluorescent counts),"[3]; HDAC8, WW01 3 Log nM",18387 Fluorescent counts and 19845 Fluorescent counts
same,HDAC Activity (Fluorescent counts),"[3]; HDAC8, WW01 3.5 Log nM",17109 Fluorescent counts and 19683 Fluorescent counts
same,HDAC Activity (Fluorescent counts),"[3]; HDAC8, WW01 4 Log nM",16686 Fluorescent counts and 18294 Fluorescent counts
same,HDAC Activity (Fluorescent counts),"[3]; HDAC8, WW01 -0.5 Log nM",19254 Fluorescent counts and 22456 Fluorescent counts
same,IC50,[3]; [4],> 10 µM
